Like-named read-outs stand apart in the source and are kept apart here.
Tests used:
Atp8b1 E-KO mice = details: mother mice fed 1% choline supplemented diet; pups at 4 weeks of age
Protocol: All animal experiments were approved by and performed in accordance with the guidelines of the animal experiment committee of the University of Tokyo. To generate Atp8b1^flox/flox mice, ICR and C57BL/6J mice were purchased from Charles River Laboratories International, Inc. (Yokohama, Japan). Mice were kept under pathogen-free conditions at a room temperature of 23.5° C.±2.5° C. and a relative humidity of 52.5%+12.5% under a 14-hour light: 10-hour dark cycle. […] In order to supplement choline to pups, mother mice were fed with a 1.0% choline supplemented diet (D20011404, Research Diets) until weaning of their pups.
Male mice harboring the designed floxed Atp8b1 allele with flox mutation were bred with female C57BL/6 mice, and the heterozygous floxed (Atp8b1^flox/+) mice in the obtained offsprings were intercrossed to produce homozygous floxed (Atp8b1^flox/flox) mice. The Atp8b1^flox/flox mice were crossed with villin-Cre transgenic mice (Stock No: 021504; The Jackson Laboratory, Bar Harbor, ME), and Atp8b1^flox/+; villin-Cre mice in the obtained offsprings were mated with Atp8b1^flox/flox mice to obtain intestinal epithelial cell (IEC)-specific Atp8b1 knockout (Atp8b1 IEC-KO; Atp8b1^flox/flox; villin-Cre) mice (Atp8b1 E-KO). Male Atp8b1 E-KO were mated with female Atp8b1^flox/flox mice, and the resulting Atp8b1 E-KO mice and littermate Atp8b1^flox/flox mice were used for animal experiments.
Male 3 to 4-week-old intestinal epithelial cell-specific Atp8b1 knockout (Atp8b1 E-KO) mice and control mice (littermate Flox/Flox mice) underwent laparotomy under isoflurane anesthesia. […] The blood was centrifuged at 1,700×g for 15 minutes, and plasma was separated. Thereafter, the plasma was flash-frozen in liquid nitrogen and was stored at −80° C. The liver was excised and was then flash-frozen in liquid nitrogen, and thereafter, the thus frozen liver was stored at −80° C., or was used for histological and electron microscopic analyses. The small intestine was excised, was then rinsed with cold PBS containing 0.5m M taurocholic acid, and was then used for histological and electron microscopic analyses, or for preparation of epithelial cells. To isolate epithelial cells from small intestine, TTDR kit (Becton Dickinson, Becton Drive Franklin Lakes, NJ) was used. According to the manufacturer's instructions included with the kit, the small intestine was opened longitudinally, was sliced into small fragments with a size of roughly 2 mm. The fragments were incubated with 1×TTDR diluted with DMEM (11995-065, gibco) at 37° C. for 30 minutes, and the resulting fragments were then mixed with 2 mM EDTA/PBS containing 1% BSA. The thus obtained mixture was filtrated through a 70 μm cell strainer (VWR21008-952; Corning Inc, Corning, NY), and was then centrifugated at 250×g at 4° C. for 10 minutes. The obtained cell pellets were incubated with 1×Pharm Lyse (Becton Dickinson, Becton Drive Franklin Lakes, NJ) at room temperature for 15 minutes for the lysis of red blood cells, and the resultant was then mixed with 2 mM EDTA/PBS containing 1% BSA. The thus obtained mixture was centrifuged at 250×g at 4° C. for 10 minutes. The prepared epithelial cells were flash frozen in liquid nitrogen, and were then stored at −80° C.
(§1) ALT and AST were determined by automatic measurement with Dri-chem (FUJIFILM, Tokyo, Japan).
The liver was cut into small pieces, was then fixed with 10% neutral buffered formalin, and was then embedded in paraffin. […]

Tax-iIEC-KO mice = details: for concentration of betaine in the liver / concentration of choline in the liver: compared with control mice
Source text: Atp8b1^flox/flox mice were mated with villin-Cre/ERT2 transgenic mice (Stock No. 020282; The Jackson Laboratory), and Atp8b1^flox/+; villin-Cre/ERT2 mice in the obtained offsprings were then mated with Atp8b1^flox/flox mice to obtain Tamoxifen-induced, intestinal epithelial cell (IEC)-specific Atp8b1 knockout (Atp8b1Tax-iIEC-KO: Atp8b1^flox/flox; villin-Cre/ERT2) mice (Atp8b1 Tax-iIEC-KO mice). The resulting Atp8b1 Tax-iIEC-KO mice and littermate Atp8b1^flox/flox mice were used for animal experiments.
as §1
The liver was cut into small pieces, was then fixed with 10% neutral buffered formalin, and was then embedded in paraffin. The small intestine was rinsed with PBS, was fixed with 10% neutral buffered formalin, was then cut into 2 segments (corresponding to the proximal side and the distal side), and was then opened longitudinally. The thus cut small intestine was opened with a toothpick, was immobilized with a pathological pin, was then fixed with 10% neutral buffered formalin, and was then embedded in paraffin. Paraffin sections (3 μm each) were prepared, and were then deparaffinized and rehydrated. Thereafter, the resulting paraffin sections were stained with hemotoxylin and eosin, and were then mounted in Entellan new (Merck, Branchburg, NJ).
The concentrations of choline, betaine, dimethylglycine (N,N-dimethylglycine) and glycerophosphorylcholine (sn-glycero-3-phosphocholine) in plasma were determined by liquid chromatography/tandem mass spectrometry (LC/MS/MS) assay. The sample was mixed with 98-fold volume of ethanol and 1-fold volume of the internal standard (IS) solution (10 μmol/L choline in water, 10 μmol/L glycerophosphorylcholine in water, and 1 μmol/L betaine in water). After vortex mixing, the sample was centrifuged at 21,500×g at 4° C. for 5 minutes. The obtained supernatant was injected into a UHPLC Nexera liquid chromatography system (Shimadzu co., Kyoto, Japan) equipped with an Ascentis Express HILIC column (2.1×50 mm, 2.7 μm, Merck KGaA, Darmstadt, Germany), and was then maintained at 4° C. The analyte was separated from the internal standard by gradient elution of mobile phase A (10 mmol/L ammonium acetate in water) and of mobile phase B (acetonitrile/water mixture) (99:1, v/v)). The gradient elution was carried out under the following conditions: 0-2 min., 82.5% B; 2-4 min., 82.5% to 5% B and 4-7 min. 5% B with a flow rate of 0.6 mL/min. The eluate was directly subjected to electrospray ionization under a positive ion mode using a 5500QTRAP mass spectrometer (Sciex pte. ltd., Toronto, Canada). All target molecules were scanned by selected reaction monitoring (SRM) mode.
Eight-week-old Tax-iIEC-KO mice and control mice were started to be fed with a control diet, a 0.3% choline supplemented diet, or a 1% choline supplemented diet, and at the same time, the Tax-iIEC-KO mice and the control mice were administered with 1 mg/day of Tamoxifen for 5 consecutive days. Thereafter, the mice were dissected at 10 weeks of age.

[1] = 0.3% choline supplemented diet, 8 to 10 weeks of age
[2] = choline supplemented diet (0.3% or 1%) from 8 to 10 weeks of age, Tamoxifen 1 mg/day for 5 days

Which results are given for `C[N+](C)(C)CCO` [choline]?
amount of neutrophils (MPO positive cells) in the liver (Atp8b1 E-KO mice): reduced; amount of tissue macrophages (F4/80 positive cells) in the liver (Atp8b1 E-KO mice): reduced; body weight (Atp8b1 E-KO mice): No changes were observed; increase in liver weight observed in Atp8b1 E-KO pups (Atp8b1 E-KO mice): resolved; small intestine length (Atp8b1 E-KO mice): No changes were observed; increase in liver injury markers (AST and ALT) (Tax-iIEC-KO mice; [1]): suppressed; onset of steatohepatitis (liver pathological images) (Tax-iIEC-KO mice; [1]): suppressed; concentration of betaine in the liver (Tax-iIEC-KO mice; 0.3% choline supplemented diet): recovered; concentration of choline in the liver (Tax-iIEC-KO mice; 0.3% choline supplemented diet): recovered; increase in liver injury markers (AST and ALT) (Tax-iIEC-KO mice; 1% choline supplemented diet, 8 to 10 weeks of age): suppressed; concentration of betaine in the liver (Tax-iIEC-KO mice; 1% choline supplemented diet): recovered; concentration of choline in the liver (Tax-iIEC-KO mice; 1% choline supplemented diet): recovered; body weight (Tax-iIEC-KO mice; [2]): not changed; small intestine length (Tax-iIEC-KO mice; [2]): not changed

Reference: US20250049735A1, “MEDICINE FOR STEATOHEPATITIS” (The University of Tokyo, priority 2021, published 2025)
